# Species: Rattus norvegicus
# Assay: Open TG-GATES - Regimen: Daily Repeat
# Type: toxicity, organism-based, Sprague-Dawley
# Design: regimen Daily Repeat, gender Male, age 6 weeks
# Conditions: in vivo, po, 100 mg/kg, […], route gavage, dose level High; for KIDNEY_L / KIDNEY_R / KIDNEY_TOTAL: tissue Kidney; for LIVER: tissue Liver; for ALP / ALT / AST / BUN / CRE / Ca / DBIL / GLC / IP / K / LDH / Na / PL / RALB / TBIL / TC / TG / TP / gamma-GTP: tissue Plasma
smiles,measurement,setting,value
CSc1ccc2c(c1)N(CCC1CCCCN1C)c1ccccc1S2 (configuration not stated) [THIORIDAZINE],Hb,"tissue Blood, time 28 day",15.6 g/dL
same,Ht,"tissue Blood, time 28 day",46.6%
same,Lym,"tissue Blood, time 28 day",80.4%
same,MCH,"tissue Blood, time 28 day",19.3 pg
same,MCHC,"tissue Blood, time 28 day",33.4%
same,MCV,"tissue Blood, time 28 day",57.7 fL
same,Mono,"tissue Blood, time 28 day",5.6%
same,Neu,"tissue Blood, time 28 day",13.8%
same,PT,"tissue Blood, time 28 day",12.5 s
same,Plat,"tissue Blood, time 28 day",92.7 x10_4/uL
same,RBC,"tissue Blood, time 28 day",808.8 x10_4/ul
same,Ret,"tissue Blood, time 28 day",2.5%
same,WBC,"tissue Blood, time 28 day",142.8 x10_2/uL
same,KIDNEY_L,time 7 day,1.2 g
same,KIDNEY_R,time 7 day,1.2 g
same,KIDNEY_TOTAL,time 7 day,2.3 g
same,KIDNEY_L,time 14 day,1.3 g
same,KIDNEY_R,time 14 day,1.3 g
same,KIDNEY_TOTAL,time 14 day,2.6 g
same,KIDNEY_L,time 28 day,1.4 g
same,KIDNEY_R,time 28 day,1.4 g
same,KIDNEY_TOTAL,time 28 day,2.8 g
same,LIVER,time 7 day,12.3 g
same,LIVER,time 14 day,13.6 g
same,LIVER,time 28 day,15.1 g
same,ALP,time 7 day,928.2 IU/L
same,ALT,time 7 day,34.2 IU/L
same,AST,time 7 day,64 IU/L
same,BUN,time 7 day,16 mg/dL
same,CRE,time 7 day,0.5 mg/dL
same,Ca,time 7 day,11.2 mg/dL
same,DBIL,time 7 day,0.008 mg/dL
same,GLC,time 7 day,199.8 mg/dL
same,IP,time 7 day,9.7 mg/dL
same,K,time 7 day,4.6 meq/L
same,LDH,time 7 day,100.2 IU/L
same,Na,time 7 day,141.6 meq/L
same,PL,time 7 day,166.8 mg/dL
same,RALB,time 7 day,3.8 g/dL
same,TBIL,time 7 day,0.4 mg/dL
same,TC,time 7 day,79 mg/dL
same,TG,time 7 day,132.4 mg/dL
same,TP,time 7 day,5.7 g/dL
same,gamma-GTP,time 7 day,1.4 IU/L
same,ALP,time 14 day,741.8 IU/L
same,ALT,time 14 day,30.4 IU/L
same,AST,time 14 day,61.2 IU/L
same,BUN,time 14 day,16.4 mg/dL
same,CRE,time 14 day,0.6 mg/dL
same,Ca,time 14 day,10.9 mg/dL
same,DBIL,time 14 day,0.02 mg/dL
same,GLC,time 14 day,178.2 mg/dL
same,IP,time 14 day,9.2 mg/dL
same,K,time 14 day,5.2 meq/L
same,LDH,time 14 day,189 IU/L
same,Na,time 14 day,142.8 meq/L
same,PL,time 14 day,152.2 mg/dL
same,RALB,time 14 day,4 g/dL
same,TBIL,time 14 day,0.4 mg/dL
same,TC,time 14 day,80.2 mg/dL
same,TG,time 14 day,83.4 mg/dL
same,TP,time 14 day,6.1 g/dL
same,gamma-GTP,time 14 day,1.4 IU/L
same,ALP,time 28 day,742.4 IU/L
same,ALT,time 28 day,35.4 IU/L
same,AST,time 28 day,55.8 IU/L
same,BUN,time 28 day,18.6 mg/dL
same,CRE,time 28 day,0.6 mg/dL
same,Ca,time 28 day,10.7 mg/dL
same,DBIL,time 28 day,0.006 mg/dL
same,GLC,time 28 day,176.4 mg/dL
same,IP,time 28 day,7.7 mg/dL
same,K,time 28 day,4.9 meq/L
same,LDH,time 28 day,115.4 IU/L
same,Na,time 28 day,142.6 meq/L
same,PL,time 28 day,160 mg/dL
same,RALB,time 28 day,4.1 g/dL
same,TBIL,time 28 day,0.2 mg/dL
same,TC,time 28 day,80.2 mg/dL
same,TG,time 28 day,111.4 mg/dL
same,TP,time 28 day,6.4 g/dL
same,gamma-GTP,time 28 day,1.6 IU/L

# From ChEMBL document CHEMBL3885861, “Open TG-GATES”
